In article PMC3815892 (Microbial biotechnology, 2012):

Target: Ar‐BVMO (Acinetobacter radioresistens, UniProt D7PBN2)
Experiment: HPLC product detection
Format: biochemical
Details: 500 uM substrate, 500 uM NADPH, 0.7 uM enzyme, 37 C, 20 min

For `CCc1cc(C(N)=S)ccn1` [ethionamide], the “HPLC product detection (ethionamide S-oxide)” value was “confirmed the presence of ethionamide S‐oxide product”.
